Where two headings read alike, the source gives them in different places. Marks after values point to notes of the source that are not given here. Values belong to the molecule of their own block, whether it stands above or below them.
Key:
[1] = tested on: mitochondrial cytochrome C oxidase subunit II (COXII) gene; assay type: cell-based, human; settings: HepG2, 10 μM, 7 days; for COXIINβ-actin DNA (range) relative to control: COXII DNA normalized to β-actin DNA
Description: The Q-RT-PCR technology was also used to evaluate potential mitochondrial γ-DNA polymerase inhibition by the compounds of the present invention in relevant human cells. […] Since active nucleoside compounds in the triphosphate form lack a 3′-OH, thereby stopping virus replication by chain termination, there is a concern that these nucleoside analogues are also substrates for the human DNA polymerase γ, resulting in inhibition of mitochondrial DNA replication and subsequently toxic side effects (11, 19). In an attempt to provide direct quantifiable data on mitochondrial DNA levels intracellular, a Q-PCR technology was designed and relative quantification of COXII DNA levels were calculated using the comparative Ct method. […] Also, in agreement with previous observations, no changes in normalized mitochondrial DNA levels were observed after FIAU and D4T treatment (6, 8, 23).
(§1) Low passage number HepG2 cells, obtained from American Tissue Culture Collection (ATCC, Manassas, Va.) were seeded at 5,000 cells/well in collagen-coated 96-well plates. Test compounds were added to the media to obtain a final concentration of 10 μM. On culture day 7, cellular nucleic acids were prepared by using commercially available columns (RNeasy 96 kit, Qiagen). […] The mitochondrial cytochrome C oxidase subunit II (COXII) gene and the β-actin or rRNA gene were amplified from 5 μL with a multiplex Q-PCR protocol using the suitable primers and probes for both target and reference (designed using the Primer Express software, Applied Biosystems); • for COXII. • sense primer 5′-[…]-3′ (Sequence 7); • probe 5′-TET-[…]-TAMRA-3′ (Sequence 8); and • antisense probe 5′-[…]-3′ (Sequence 9); • for exon 3 of β-actin (GenBank E01094): • sense primer 5′-[…]-3′ (Sequence 10); • probe 5′-6FAM-[…]-TAMRA-3′ (Sequnece 11); and • antisense probe 5′-[…]-3′ (Sequence 12).
(§2) The rRNA gene primers and probes were purchased from Applied Biosystems. Standard curves using 1-log diluted total HepG2 DNA were linear over more than 5 logs. In addition, efficiencies of target (COXII DNA) and reference (β-actin DNA or rRNA) amplification were approximately equal, because the slope of the ΔCt line (Ct β-actin minus Ct mitochondrial) was less than 0.1 (not shown). Since equal amplification efficiencies were obtained for both genes, the comparative cycle threshold (Ct) method was used to investigate potential inhibition of the mitochondrial DNA polymerase γ. The comparative Ct method uses arithmetic formulas in which the amount of target (COXII gene) is normalized to an endogenous reference (β-actin gene or rRNA gene) and is relative to a calibrator (no drug control at day 7). The arithmetic formula for this approach is given by 2-ΔΔCt (User bulletin # 2, Applied Biosystems).
(§3) In order to study the consequences of possible inhibitory effects of these compounds on host DNA polymerases, nuclear and rnitochondrial DNA levels were quantified and compared to no-treatment controls. Cells were incubated for 7 days with 10 μM of each compound, followed by total nucleic acid extractions and multiplex Q-PCR of the rRNA gene and the mitochondrial COXII gene. Nucleic acids from cells exposed to the control compounds were also amplified in multiplex for mitDNA and the β-actin gene. The results are presented in Table 4 using the comparative Ct method.

β-actin gene = assay type: cell-based, human; settings: 7 days
Method: as §1, §2, §3

rRNA gene = assay type: cell-based, human; settings: HepG2, 10 μM, 7 days
Method: Low passage number HepG2 cells, obtained from American Tissue Culture Collection (ATCC, Manassas, Va.) were seeded at 5,000 cells/well in collagen-coated 96-well plates. Test compounds were added to the media to obtain a final concentration of 10 μM. On culture day 7, cellular nucleic acids were prepared by using commercially available columns (RNeasy 96 kit, Qiagen).
The rRNA gene primers and probes were purchased from Applied Biosystems. […] The comparative Ct method uses arithmetic formulas in which the amount of target (COXII gene) is normalized to an endogenous reference (β-actin gene or rRNA gene) and is relative to a calibrator (no drug control at day 7). The arithmetic formula for this approach is given by 2-ΔΔCt (User bulletin # 2, Applied Biosystems).
as §3, with “gene.” for “gene. The results are presented in Table 4 using the comparative Ct method.”

[2] = tested on: Vero (African green monkey kidney) cells; assay: in vitro; assay type: cell-based
Method: (§4) The compounds were evaluated for their potential toxic effects on uninfected PHA-stimulated human PBM cells, in CEM (T-lymphoblastoid cell line obtained from American Type Culture Collection, Rockville, Md.) and Vero (African green monkey kidney) cells. PBM cells were obtained from whole blood of healthy seronegative donors (HIV-1 and hepatitis B virus) by single-step Ficoll-Hypaque discontinous gradient centrifugation. Log phase Vero, CEM and PHA-stimulated human PBM cells were seeded at a density of 5×10^3, 2.5×10^3 and 5×10^4 cells/well respectively. All of the cells were plated in 96-well cell culture plates containing ten-fold serial dilutions of the test drug. The cultures were incubated for 3, 4 and 5 days for Vero, CEM, and PBM cells, respectively in a humidified 5% CO2-air at 37° C. At the end of incubation, MTT tetrazolium dye solution (Cell titer 96®, Promega, Madison, Wis.) was added to each well and incubated overnight. The reaction was stopped with stop solubilization solution (Promega, Madison, Wis.). The plates were incubated for 5 hours to ensure that the formazan crystals were dissolved. The plates were read at a wavelength of 570 nm using an ELISA plate reader (Bio-tek instruments, Inc., Winooski, Vt., Model # EL 312e). […] Bookmark not defined.

human PBM cells = assay: in vitro; assay type: cell-based
Method: as §4, with “Log phase Vero, CEM and PHA-stimulated human PBM cells were seeded at a density of 5×10^3, 2.5×10^3 and 5×10^4 cells/well respectively.” left out, “The cultures were incubated for 3, 4 and 5 days for Vero, CEM, and PBM cells, respectively in a humidified 5% CO2-air at 37° C.” left out

[3] = target: T1, adenosine deaminase (EC.3.5.4.4. from calf intestinal mucosa) (Bos taurus, UniProt P56658); assay: in vitro
T1 sequence (P56658 1-363): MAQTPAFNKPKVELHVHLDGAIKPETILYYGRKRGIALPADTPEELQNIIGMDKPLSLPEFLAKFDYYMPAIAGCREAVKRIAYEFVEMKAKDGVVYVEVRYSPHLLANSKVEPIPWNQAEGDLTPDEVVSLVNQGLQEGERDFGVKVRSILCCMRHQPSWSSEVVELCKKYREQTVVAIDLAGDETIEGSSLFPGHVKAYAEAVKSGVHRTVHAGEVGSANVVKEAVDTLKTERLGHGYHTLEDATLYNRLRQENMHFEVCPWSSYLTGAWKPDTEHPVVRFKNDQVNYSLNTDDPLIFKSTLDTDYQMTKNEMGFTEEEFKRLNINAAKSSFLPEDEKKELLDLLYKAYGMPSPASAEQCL
Method: Assays were performed at 25° C. in phosphate buffer solution (pH 7.4) with substrate concentrations in the range of 15-100 μM and with 0.15 unit of adenosine deaminase (EC.3.5.4.4. from calf intestinal mucosa). The assays were monitored with a UV spectrometer at 265 nm. Initially, the qualitative assays were performed with D-β-2′-F-4′-S-d4A 24 (200 μM) in the presence of 0.24 unit of adenosine deaminase for 120 minutes to determine whether it is a substrate of this enzyme. The concentration (ct) of each substrate at a certain time (t) was calculated from the absorbance (At) at that time (t), where it was assumed that the total change of absorbance (A0−A∞) was directly related to the disappearance of the substrate.^35 Initial hydrolysis rates for each substrate concentration were measured manually through graphical curve fitting of the concentration versus time data for reaction of each substrate. From Lineweaver-Burke plot of these initial rates, Vmax (maximum velocity) and KM (Michaelis constant) were obtained for each substrate and kcat was also calculated with 0.15 unit of the enzyme (M.W. 33,000) in 2 mL of buffer solution.

HIV-1LAI = assay: HIV assay in human PBM cells (RT activity of supernatant); assay type: cell-based; settings: 5 days, read-out: Anti-HIV-1 Activity (EC50)
Description: Human peripheral blood mononuclear (PBM) cells (obtained from Atlanta Red Cross) were isolated by Ficoll-Hypaque discontinuous gradient centrifugation from healthy seronegative donors. Cells were stimulated with phytohemagglutinin A (Difco, Sparks, Md.) for 2-3 days prior to use. HIV-1LAI obtained from the Centers for Disease Control and Prevention (Atlanta, Ga.) was used as the standard reference virus for the antiviral assays. The molecular infetious clones HIV-1xxBru and HIV-1M184Vpin were obtained from Dr. John Mellors (University of Pittsburgh). Infections were done in bulk for one hour, either with 100 TCID50/1×10^7 cells for a flask (T25) assay or with 200 TCID50/6×10^5 cells/well for a 24 well plate assay. Cells were added to a plate or flask containing a ten-fold serial dilution of the test compound. Assay medium was RPMI-1640 supplemented with heat inactivated 16% fetal bovine serum, 1.6 mM L-glutamine, 80 IU/ml penicillin, 80 μg/ml streptomycin, 0.0008% DEAE-Dextran, 0.045% sodium bicarbonate, and 26 IU/ml recombinant interleukin-2 (Chiron Corp, Emeryville, Calif.). AZT was used as a positive control for the assay. Untreated and uninfected PBM cells were grown in parallel at equivalent cell concentrations as controls. The cell cultures were maintained in a humidified 5% CO2-air at 37° C. for 5 days and supernatants were collected for reverse transcriptase (RT) activity.
Supernatants were centrifuged at 12,000 rpm for 2 hours to pellet the virus. The pellet was solubilized with vortexing in 100 μl virus solubilization buffer (VSB) containing 0.5% Triton X-100, 0.8 M NaCl, 0.5 mM phenylmethylsulfonyl fluoride, 20% glycerol, and 0.05 M Tris, pH 7.8. Ten μL of each sample were added to 75 μL RT reaction mixture (0.06 M Tris, pH 7.8, 0.012 M MgCl2, 0.006 M dithiothreitol, 0.006 mg/ml poly (rA)n, oligo (dT)12-18, 96 μg/ml dATP, and 1 μM of 0.08 mCi/ml ^3H-thymidine triphosphate (Moravek Biochemicals, Brea, Calif.) and incubated at 37° C. for 2 hours. The reaction was stopped by the addition of 100 μL 10% trichloroacetic acid containing 0.05% sodium pyrophosphate. The acid insoluble product was harvested onto filter paper using a Packard Harvester (Meriden, Conn.), and the RT activity was read on a Packard Direct Beta Counter (Meriden, Conn.). The RT results were expressed in counts per minute (CPM) per milliliter.

[4] = tested on: CEM (T-lymphoblastoid cell line); assay type: cell-based
Method: as §4

melting point: 140 °C (dec.)
Compound: Cc1cn([C@@H]2CC(F)(F)[C@H](CO)O2)c(=O)[nH]c1=O [Compound 26, 1-(2,3-Dideoxy-3,3-difluoro-β-L-ribofuranosyl)thymine]

melting point: 146 to 148 °C (dec.)
Compound: Cc1cn([C@@H]2C=C(F)[C@H](CO)O2)c(=O)[nH]c1=O [Compound 28, 1-(2,3-dideoxy-3-fluoro-β-L-glycero-pent-2-eno-furanosyl)thymine]

Further lines, the molecule ahead of its results:

Compound: Nc1nc2c(ncn2COCCO)c(=O)[nH]1 [ACV, 9-(2-hydroxyethoxymethyl)guanine]
COXIINβ-actin DNA (range) relative to control ([1]; 2-ΔΔCt): 1.45 (1.34-1.52)
Average ΔCt ± SD COXII DNA [1]: −0.37 ± 0.08
Average ΔΔCt ± SD COXII-β-actin [1]: −0.54 ± 0.06
Average ΔCt ± SD β-actin DNA (β-actin gene; human, 10 μM): 0.17 ± 0.01

Compound: Nc1ccn(C2CSC(CO)O2)c(=O)n1 (single isomer, unassigned; (+)) [(+)-BCH-189, (+)-β-2′,3′-dideoxy-3′-thiacytidine]
Average ΔCt ± SD rDNA (rRNA gene): −0.14 ± 0.61
Average ΔΔCt ± SD rDNA-β-actin (rRNA gene): 0.23 ± 0.39
COXIINrDNA (range) relative to control ([1]; COXII DNA normalized to rDNA, 2-ΔΔCt): 0.20 (0.13-0.32)
COXIINβ-actin DNA (range) relative to control ([1]; 2-ΔΔCt): 0.17 (0.14-0.22)
Average ΔΔCt ± SD COXII-rDNA [1]: 2.3 ± 0.66^d
Average ΔΔCt ± SD COXII-β-actin [1]: 2.53 ± 0.36^d
effect on (normalized) mitochondrial COXII DNA levels, in words [1]: reduce rnitochondrial COXII DNA levels
Average ΔCt ± SD β-actin DNA (β-actin gene; HepG2, 10 μM): −0.36 ± 0.31

Compound: Nc1ncnc2c1ncn2[C@@H]1S[C@H](CO)C=C1F [Compound D-27, (−)-9-[(1R,4S)-2,3-dideoxy-2,3-didehydro-2-fluoro-4-thio-β-D-ribofuranosyl]-adenine]
IC50 [2]: > 100 µM
IC50 (human PBM cells): > 100 µM
kcat ([3]; 25° C., pH 7.4, 0.15 unit of enzyme): 0.94 s⁻¹
Km ([3]; 25° C., phosphate buffer pH 7.4, substrate of ADA): 18.3 µM
t½ ([3]; bovine): 33 min
EC50 (HIV-1LAI): 8.1 µM
IC50 [4]: > 100 µM
